Experiments:
Format in all cases: cell-based, human
[1] = tested on: colorectal cancer cells; test: Cleaved caspase-3 by flow cytometry; details: 25 µM, 48 h
Experimental: Cancer cells (3 × 10^4) were cultured in 48-well plates and treated with DMSO or NK-A 17E-233I (25 µM) for 48 h. Following treatment, the cells were harvested, and the supernatant was discarded. Cell pellets were resuspended in 4% methanol-free paraformaldehyde (PFA, #28908; Thermo Fisher Scientific) while vortexing and incubated in the dark at room temperature for 15 min. One milliliter of PBS was added to all tubes, followed by centrifugation at 500 × g for 5 min. The supernatant was discarded, and the pellets were permeabilized using 90% cold methanol with incubation on ice for 10 min. Subsequently, 1 mL of 0.5% BSA (#A3059; Sigma-Aldrich) was added, and the samples were centrifuged at 500 × g for 5 min. The supernatant was discarded, and the pellets were resuspended in 0.5% BSA. The anti–caspase-3 (p17, Cleaved-Asp175) primary antibody (#9661; Cell Signaling, dilution 1:800) was used to incubate samples at room temperature for 1 h. Afterwards, 0.5% BSA was added, and the tubes were centrifuged at 500 × g for 5 min. The supernatant was discarded, and the pellets were resuspended in 0.5% BSA. The samples were then incubated with F(ab')2-Goat anti-Rabbit IgG (H + L) Cross-Adsorbed Secondary Antibody, Alexa Fluor 633 (#A-21072; Invitrogen, dilution 1:1000) in the dark at room temperature for 30 min. […]

[2] = tested on: tumor-derived intestinal organoids; test: Organoid viability (CellTiter-Glo 3D); details: 96 h
[3] = tested on: colorectal cancer cells; test: Western blot
Experimental: Cancer cells (2.2 × 10^6) were cultured in 100-mm Petri dishes and treated with DMSO or NK-A 17E-233I (25 µM) for 48 h. Cells were harvested by scrapping into 2 × Laemmli buffer (4% SDS, 20% glycerol, 125 mM Tris–HCl, pH 6.8) and heated at 100 °C for 5 min. A 4 × Laemmli sample buffer containing β-mercaptoethanol was added to the cell lysates. The proteins were separated using sodium dodecyl sulfate polyacrylamide gel electrophoresis (SDS-PAGE) and subsequently transferred to polyvinylidene fluoride (PVDF) membranes (#88518; Thermo Fisher Scientific) following the manufacturer’s protocols. The membranes were blocked at room temperature for 1 h with 5% dried skimmed milk in Tris-buffered saline with Tween-20 (TBS-T) (20 mM Tris–HCl, pH 7.5, 150 mM NaCl, 0.1% Tween-20), and the blots were incubated with the corresponding antibodies at a dilution of 1:1000–1:3000 in a blocking buffer at 4 °C overnight.
Primary antibodies utilized in this study included: anti-human DHODH (#SC-166348; Santa Cruz), anti–CHK1-pS345 (#2348; Cell Signaling), anti-POLD2 (#29765–1-AP; Proteintech), anti-POLD1 (#15646–1-AP; Proteintech), anti-p53 (#SC-126; Santa Cruz), anti-KRAS, clone 4F3 (#SAB1404011; Sigma-Aldrich), anti-GAPDH (#ab9489; Abcam), anti–α-tubulin (#T9026; Sigma-Aldrich), anti-BAX (#SC-23959; Santa Cruz), anti-cytochrome c (#66264–1-IG; Proteintech), anti-DR5 (#3696; Cell Signaling, dilution 1:500), anti–caspase-8 (#SC-56070; Santa Cruz), and anti–caspase-3 (#9662; Cell Signaling, dilution 1:500). The membranes were incubated at room temperature for 1 h with secondary antibodies (diluted 1:3000–5000), either anti-rabbit (#A0545; Sigma-Aldrich) or anti-mouse IgG-horseradish peroxidase-conjugated (#A9044; Sigma-Aldrich), in TBS-T. The images were analyzed and quantified using ImageStudio software (LI-COR) or ImageQuant 10.2 TL analysis software (Cytiva Life Sciences).

[4] = tested on: cell lines from other cancer types (osteosarcoma, breast, lung); test: Cell morphology studies (brightfield); details: 25 µM, 48 h
Source text: Brightfield images were captured using a Leica DMi8 microscope with a 10X or 20X objective (HC PL FLUOTAR 10X/0.45 or 20X/0.75) equipped with a Leica DFC9000GT camera, and processed with a Leica Application Suite X (LAS X) Life Science Microscope Software (v3.5.5.19976, RRID:SCR_013673).

[5] = tested on: FBS-starved cancer cells; test: Serum starvation of cancer cells (CellTiter-Glo); details: 25 µM, 24 h, FBS-free
Experimental: Cancer cells (7.5 × 10^3) were cultured in a 96-well plate in DMEM (fortified with 10% FBS) for 24 h. Subsequently, the cells were subjected to serum starvation (FBS-free DMEM) and treated with either DMSO or NK-A 17E-233I (25 µM) for an additional 24 h. Cell proliferation was measured using the CellTiter-Glo reagent as previously described.

[6] = tested on: SW620 cells; test: RNA sequencing (RNASeq); details: 25 µM, 48 h
Experimental: Cancer cells (2.2 × 10^6) were cultured in 100-mm Petri dishes and treated with either DMSO or NK-A 17E-233I (25 µM) for a duration of 48 h. Dry cell pellets were collected from three independent biological replicates and submitted to Novogene for RNASeq analysis (Cambridge, UK). The raw data are available in detail at the Zenodo repository (10.5281/zenodo.14833856).

**Q.** For COc1cc(C)c(Oc2cc(C)cc(O)c2O)c(O)c1 [NK-A 17E-233I], which “active caspase-3 staining” value [1] is on record?
**A.** Its value is “significantly increased”.

**Q.** And the “sensitivity of tumor-derived organoids” value [2]?
**A.** The value was “demonstrated sensitivity to NK-A 17E-233I in a dose-dependent manner”.

**Q.** And the “expression of wild-type p53 protein” value ([3]; 25 µM)?
**A.** Its value is “without influencing the expression”.

**Q.** And the “phosphorylation of CHK1 (pS345)” value ([3]; 25 µM)?
**A.** Its value is “confirmed the phosphorylation of CHK1”.

**Q.** And the “expression levels of DHODH” value ([3]; 25 µM, 48 h)?
**A.** The value was “did not observe a change”.

**Q.** And the “levels of apoptotic markers (DR5, caspase-8, Bax, cytochrome c, caspase-3)” value ([3]; 25 µM, 48 h)?
**A.** Its value is “increased levels”.

**Q.** And the “protein expression levels of POLD1 and POLD2” value ([3]; 25 µM, 48 h)?
**A.** Its value is “reductions”.

**Q.** What about the “expression of KRAS G13D mutant protein” value ([3]; HCT116 cells) of the same molecule?
**A.** The value was “reduced”.

**Q.** And the “levels of p53-mutant protein” value ([3]; NK-A 17E-233I 25 µM, Brequinar)?
**A.** Its value is “reduced”.

**Q.** And the “expression of KRAS G12V mutant protein” value ([3]; SW620 cells)?
**A.** The value was “reduced”.

**Q.** And the cytotoxic effects [4]?
**A.** The cytotoxic effects was “cytotoxic effects”.

**Q.** And the “effect on starved cancer cells” value [5]?
**A.** Its value is “no significant effect”.

**Q.** What about the “POLD2 gene expression (RNASeq)” value [6] of the same molecule?
**A.** Its value is “significantly downregulated”.

Source: publication PMC12534982 (Journal of Experimental & Clinical Cancer Research : CR, 2025)
